melting point [°C] | SMILES
68 to 69 | COC(=O)C(CCCc1cc(C(C)(C)C)c(O)c(C(C)(C)C)c1)S(=O)(=O)C(CCCc1cc(C(C)(C)C)c(O)c(C(C)(C)C)c1)C(=O)OC (stereo not drawn)
217 to 219 | C[C@H](CO)Nc1nc(SCc2cccc(C(F)(F)F)c2F)nc2[nH]c(=O)cnc12
120 to 122 | CSc1cc(C(C)=O)ccc1OCCCBr
145 to 146 | CCn1c2ccccc2c2cc(C=C(c3ccccc3)c3ccccc3)ccc21
134 | CC(C)(C)NC(=O)c1ccc(S(=O)(=O)N2C(=O)C(C)(c3ccccc3Cl)c3cc(OCC(F)(F)F)ccc32)cc1 (stereo not drawn)
156 to 157 | CN(C)CC(=O)N1c2ccccc2N(C)S(=O)(=O)c2ccc(C(F)(F)F)cc21
166 to 167 | COC(=O)[C@H](CC(C)C)NC(=O)CNC(=O)[C@H](Cc1ccc(O)cc1)NC(=O)[C@H](CO)NC(=O)OCc1ccccc1
92 to 94 | CCOC(=O)Oc1cc(C(C)(C)C)oc(=O)c1-c1c(C)cc(C)cc1C
67 to 70 | O=[N+]([O-])c1ccc(Oc2ccc(Cl)cc2)cc1
213 to 216 | COc1cccc(-n2ncc(C(=O)O)c2C(N)=O)c1
123 to 126 | Cc1cccc(NC(=O)NC2N=C(C(C)C)c3ccccc3N(CC(=O)N3CC4CCC(CC4)C3)C2=O)c1 (stereo not drawn)
197 to 198 | Cc1nc(N2CCN(Cc3ccc(OC(F)(F)F)cc3)C2=O)sc1C(=O)NCc1ccccc1
146 | CN(C(=O)NCCc1ccc(F)cc1)c1cccc(-c2ccc(CCC(=O)O)cc2)c1
242 to 243 | O=C(c1ccccc1)n1c2cc(O)c(O)cc2c2ccc(O)c(O)c21
97 to 98 | CCOC(=O)N1CCN(c2c(F)cc([N+](=O)[O-])c(NC3CC3)c2C)CC1
133 | Clc1nc(-c2ccc(Br)cc2)nc(Cl)c1-c1ccccc1
194 to 195 | CN1C(=O)CC(c2c[nH]c3ccc(Br)cc23)C1=O (stereo not drawn)
60 to 61 | CCN(CCO[N+](=O)[O-])C(=O)COC(=O)[C@@H](C)c1ccc2cc(OC)ccc2c1
140 to 142 | CC(C)CN(CC(C)C)c1ccc(NC(=O)N(C[C@H]2CC[C@H](CN(C(=O)Nc3ccc(N(CC(C)C)CC(C)C)cc3)C3CCCCC3)CC2)C2CCCCC2)cc1
166 to 168 | O=C1NOc2cccc3nc4c(c(c23)C1Cc1ccccc1)CCCC4 (stereo not drawn)
89 to 91 | Cc1cc(C)c(S(=O)(=O)NC(COc2ccccc2)C(F)(F)F)c(C)c1 (stereo not drawn)
242 to 244 | COc1ccc(C=C2SC(=S)N(CC(=O)O)C2=O)cc1-c1cc2c(cc1C)C(C)(C)CCC2(C)C

melting point [°C] | SMILES
256 to 259 | CCc1c(OC)nc2nc(C(N)=O)cn2c1C
108 | COC(=O)CCCc1cc2nc(Cl)ccc2n1S(=O)(=O)c1ccc(Cl)cc1
162 to 163 | CCOC(=O)COc1cc(C(C)(C)C)c(SC2=C(O)CC(CCc3ccc(O)cc3)(CCc3ccc(O)cc3)OC2=O)cc1C
173 to 176 | Cc1ccc2c(n1)C(=O)N(c1c(Cl)ccc(C)c1C#N)C2=O
286 | O=C(CCl)Nc1ccc2c(c1)C(=O)c1cc(NC(=O)CCl)ccc1C2=O
200 to 201 | N#Cc1ccc(NC(=O)CCCC(=O)O)cc1
135 to 137 | CC(C)(C)OC(=O)N(CC(=O)O)CC(=O)O
165 to 167 | O=C(O)COc1c(Br)cc(C(=O)c2c(Cc3ccccc3)oc3ccccc23)cc1Br
164 to 166 | O=C1NCCN1c1ccc(S(=O)(=O)Nc2ccc3c(c2)Cc2ccccc2-3)cc1
174 to 176 | CCOC(=O)c1ncc2[nH]c3cccc(Oc4ccccc4)c3c2c1COC
197 to 199 | CCC1(c2cccs2)OCC(=O)Nc2ccc(-c3ccc(F)c(C#N)c3)cc21 (stereo not drawn)
114 to 116 | CC(=O)NC[C@H]1CN(c2ccc(N3CCC4(CC3)COCCO4)c(F)c2)C(=O)O1
139 to 141 | Cc1cc(OCCN(C)C)ccc1NC(=O)c1ccc(N2CCNCC2)cc1
118 to 119 | Cc1c(CNCC(C)C)[nH]c2c(C)c(NC(=O)c3ccc(OC[C@@H]4CCCO4)cc3)ccc12
143 to 145 | O=C(NCc1ccc(F)c(F)c1)c1ccnc(N2CCN(Cc3ccccn3)C2=O)c1
200 to 205 | N=C(N)Nc1nc(CCCCNc2ncc(Cc3ccc(Cl)cc3)c(=O)[nH]2)cs1
89 to 92 | CCCCc1nc(Cl)c(C(=O)NC)n1Cc1ccc2oc(-c3ccccc3NS(=O)(=O)C(F)(F)F)c(Br)c2c1
221 to 223 | CCOC(=O)C1CCN(c2ccc([N+](=O)[O-])c(C=C3NC(=O)NC3=O)c2)CC1
129 to 130 | N#CNC(=NCCCOc1ccccc1)Nc1cncc(Br)c1
54 to 56 | CCOC(=O)c1c(C)nc2c(cnn2CC)c1Cl
272 to 274 | CN1c2cc(Cl)ccc2-c2nc3ccccc3c3cccc1c23
162 to 164 | COc1cc(N)nc(N2CCOCC2)n1

melting point [°C] | SMILES
190 to 193 | Oc1ccc2ccc(OCc3ccccn3)cc2c1
102 | COc1cc(/C=C/C(=O)O)cc(OC)c1OCc1ccccc1
185 to 186 | C#CC1(C)OC(=O)Nc2ccc(-c3cccc(Cl)c3)cc21 (stereo not drawn)
180 to 183 | N=C(Nc1ccc2[nH]cc(C3CCN(C(=O)c4ccccc4)CC3)c2c1)c1cccs1
128 to 134 | C[C@@H](Nc1ncnc2cc(OCCOS(C)(=O)=O)c([N+](=O)[O-])cc12)c1ccccc1
86 to 87 | Nc1ccc(OCC2COCCO2)cc1 (stereo not drawn)
76 to 80 | C=C(C)C(=O)Oc1ccc(/C=C/C(=O)OC)cc1
134 to 137 | Cc1ccc(S(=O)(=O)N2CCC(c3ccc(C=O)cc3)CC2)cc1
285 to 287 | COc1ccc2cc(-c3nn(C(C)c4oc5ccccc5c(=O)c4-c4cccc(F)c4)c4ncnc(N)c34)ccc2c1 (stereo not drawn)
71 to 76 | CCNC(=O)c1sc(S(C)=O)cc1[Si](C)(C)C (stereo not drawn)
253 to 254 | O=C(CNS(=O)(=O)c1ccc(Nc2nccc(Nc3ccc(F)cc3)n2)cc1)NC1CCOCC1
144 to 146 | CC(C)c1ccc(-n2nc(C(F)(F)F)cc2-c2ccc(S(C)(=O)=O)cc2)cc1
195 to 196 | CCn1c2ccccc2c2ccncc21
181 to 182 | COc1ccc(CN2C(=O)[C@@H](NC(=O)Cc3ccccc3)[C@H]2CI)c(OC)c1 (relative stereo)
158 to 160 | O=C(O)C=CC1=CCCC([N+](=O)[O-])C1 (stereo not drawn)
119 to 120 | CN(c1ccc(Br)cc1)S(=O)(=O)c1cccc(C(=O)Nc2ccc(F)cc2F)c1
254 to 255 | CSc1nnc2c(=O)c3ccc(Cl)cc3ccn12
144 to 147 | COc1ccccc1Oc1c(NS(=O)(=O)c2c(C)noc2C)nc(N2CCOCC2)nc1OCCO
102 to 104 | COc1ccnc(CSc2nc3cscc3n2C(=O)OCc2ccccc2)c1
164 to 165 | CC(C)n1nc(-c2cnc(N)nc2-c2cccc(C(F)(F)F)c2)ccc1=O
246 | Cn1cncc1C(O)(c1ccoc1)c1ccc2nc(Cl)cc(-c3cccc(Cl)c3)c2c1 (stereo not drawn)
189 to 190 | CSc1nnc(-c2ccnc(Nc3cccc(C(F)(F)F)c3)c2)o1

melting point [°C] | SMILES
132 | COC(=O)c1cc(C(=O)NCCCCN2CCC(c3ccc4c(c3OC)CCCC4)CC2)ccc1-c1ccc(C(F)(F)F)cc1
110 to 111 | CCOC(=O)c1cc(Br)c2oc(C)c(C)c2c1
181 to 185 | O=C(O)COc1cc2c(c(Cl)c1Cl)C(=O)C(c1ccccc1)C2 (stereo not drawn)
144 to 146 | O=C(C=C(C(=O)O)c1csc(NC(=O)OCc2ccccc2)n1)OCc1ccccc1
240 | CCn1c(N)c(-c2ncc[nH]2)c(=O)c2ccc(-c3ccc(CCCC(=O)NCc4ccncc4)cc3)nc21
111 to 113 | COC(=O)c1ccc(OCC2CC(=O)N(c3ccc(OS(C)(=O)=O)cc3)C2)cc1 (stereo not drawn)
230 to 232 | CS(=O)c1cc(=O)c2occc2s1 (stereo not drawn)
118 to 126 | CCCc1c(OCCC2Cc3cc(CC(=O)O)ccc3O2)ccc(C(C)=O)c1O (stereo not drawn)
122 to 125 | COc1ccccc1Cn1c(=O)c2c(N3CCNCC3)cc(Cl)cc2n(Cc2ccccc2)c1=O
113 to 114 | CS(=O)(=O)c1ccc(-c2cnn(CC(F)(F)F)c(=O)c2OC2CCc3ccccc32)cc1 (stereo not drawn)
126 to 128 | COc1ccc(C[C@@H](C(=O)[C@H](Cc2ccc(OC)c(OC)c2)N2C(=O)c3ccccc3C2=O)N2C(=O)c3ccccc3C2=O)cc1OC
299 to 301 | NC(=O)c1nc(-c2cccc(O)c2)nc2c1[nH]c(=O)n2[C@H]1CC[C@H](N)CC1
167 to 168 | CCCCCCCCS(=O)(=O)Nc1cc(C(F)(F)F)ccc1Oc1ccccc1C(=O)O
89 to 90 | N#CCCCN1CCOC(c2ccccc2)(c2ccccc2)CC1
147 to 148 | O=[N+]([O-])c1ccc(S(=O)(=O)NCC2CCN(C[C@H]3COc4ccc(Cl)cc4O3)CC2)cc1
249 to 250 | CCCNc1ccc(NC(=O)c2ccc(NC(=O)c3ccc(NCCC)nc3)nc2)nc1
180 to 181 | Cc1nc2c(OCc3ccccc3Cl)nccc2n1C
118 to 119 | Nc1cccc(-c2nc3n(n2)CCc2ccccc2-3)c1
152 to 153 | CN(c1cc(OC(F)(F)F)cc2cc(C3=NCC(CCO)S3)[nH]c12)S(=O)(=O)c1cccs1 (stereo not drawn)
244 to 248 | O=C(O)c1c2n(c3cc(N4CCOCC4)c(F)cc3c1=O)CS2
87 to 97 | N#CCCc1cc(N2C(=O)C3=C(CCCC3)C2=O)ccc1Cl
121 to 123 | O=[N+]([O-])c1cn(-c2cccnc2)nc1C(F)(F)F

SMILES | melting point [°C]
Cc1ccnc2c1N=C(N)c1cccnc1N2C1CC1 | 242 to 244
CCOC(=O)c1ncn2c1CN=C(c1ccccc1F)c1cc(Cl)ccc1-2 | 195 to 196
Cc1nnc2n1-c1ccccc1C(c1ccccc1Cl)=NC2 | 212 to 213
CCN1c2ncccc2C(C#N)=Nc2c(C)cc(C)nc21 | 154 to 155
CCCCCCC(C)(C)c1cc(O)c2c(c1)OC(C)(C)CC2C(=O)O (stereo not drawn) | 147 to 148

Source: a melting point compilation (Tetko et al.; mined from patent text by program, amines drawn as free bases though some values may be those of a salt)
